From US11576914B2, “Drug for treating or preventing disorder caused by TGF-β signaling, and application thereof” (THE DOSHISHA, priority 2017, dated 2023)

What was measured:
[1] = test system: cleaved caspase-3 and PARP; assay: Western blot of caspase 3 and PARP in iFECD stimulated with TGF-β2; assay type: cell-based, human; conditions: 0.1 μM
Protocol: The medium was removed from the culture dish of cultured disease model cells, and the disease model cells were supplemented with 1×PBS (−) that was preheated to 37° C., followed by washing. This operation was repeated twice. The cells were supplemented with 1×PBS (−) again and incubated for 5 minutes at 37° C. (5% CO2). After the PBS (−) was removed, the cells were supplemented with 0.05% Trypsin-EDTA (nacalai tesque, 32778-34) and incubated for 5 minutes at 37° C. (5% CO2). The cells were then suspended in a medium, and collected by centrifugation at 1500 rpm for 3 minutes. Medium: DMEM (nacalai tesque, 08456-36)+10% FBS (Biowest, S1820-500)+1% P/S (nacalai tesque, 26252-94).
The Fuchs' endothelial corneal dystrophy patient-derived immortalized corneal endothelial cells were seeded in a 6-well plate at a rate of 1.5×10^5 cells per well and cultured at 37° C. (5% CO2) for 48 hours. DMEM+10% FBS+1% P/S was used as the medium. After 48 hours, the medium was removed, and SB203580 (Cayman, 13067), PH-797804 (Selleck Chemicals, S2726), VX-702 (Selleck Chemicals, 56005) and AKP-001 were added to DMEM+2% FBS+1% P/S so that all the final concentration was 0.1 μM, followed by culturing as 24-hour pretreatment.
After 24 hours, the medium was removed, and SB203580 (Cayman, 13067), PH-797804 (Selleck Chemicals, S2726), VX-702 (Selleck Chemicals, 56005) and AKP-001, together with 100 ng/ml recombinant human TGF-β2 (R & D systems, RND302-B2-002), were added to DMEM+2% FBS+1% P/S so that all the final concentration was 0.1 μM, followed by culturing for 24 hours. After 24 hours, the protein was subjected to Western blotting according to the following procedure to evaluate the effect on apoptosis.
The medium was collected on ice to collect free and dead cells as well. The solution obtained from washing the cells twice with 1×PBS (−) was also collected, followed by centrifugation of 800 g at 4° C. for 5 minutes. The supernatant was discarded to obtain precipitates. The washed cells were supplemented with a protein extraction buffer (RIPA; 50 mM Tris-HCl (pH 7.4), 150 mM NaCl, 1 mM EDTA, 0.1% SDS, 0.5% DOC, 1% NP-40) on ice to extract proteins. The precipitates from centrifuging the free and dead cells were also subsequently suspended together for extraction. The collected solution was pulverized three times for 30 seconds in cold water with a sonication device (BIORUPTOR, TOSHO DENKI) and centrifuged for 10 min at 4° C. at 15000 rpm to collect the supernatant of proteins.
Eight μg of the extracted protein was separated by SDS-PAGE and transferred onto a nitrocellulose membrane. A rabbit anti-Caspase 3 antibody (Cell Signaling, 9662), rabbit anti-PARP antibody (Cell Signaling, 9542), and mouse anti-GAPDH antibody (MBL, M171-3) were used as the primary antibodies. A peroxidase-labeled anti-rabbit antibody and anti-mouse antibody (GE Healthcare Biosciences, NA931V, NA934V) were used as the secondary antibodies. For the primary antibodies, the rabbit anti-PARP antibody was diluted 1000-fold, the rabbit anti-Caspase 3 antibody was diluted 1000-fold, and the mouse anti-GAPDH antibody was diluted 3000-fold. Further, the secondary antibody was diluted 5000-fold. Chemi Lumi ONE Ultra (Nacalai Tesque, 11644-40) was used for detection. The detected band strength was analyzed with a lumino image analyzer LAS-4000 mini (Fuji Film) and ImageQuant™ software (GE Healthcare).

caspase 3/7 = assay: Caspase-Glo 3/7 Assay in human corneal endothelial cells in the presence of AKP-001; assay type: cell-based; conditions: 24 hours
Protocol: Cultured human corneal endothelial cells were seeded at a rate of 1×10^4 per well in a 96-well plate coated with laminin-511E8, and the cells were cultured until reaching confluence at 37° C. (5% CO^2). For the medium, used was OptiMEM-I (invitrogen, 31985-088)+8% FBS (Thermo, SH30084.03)+5 ng/mL epidermal growth factor (invitrogen, PHG0311)+20 μg/mL L-ascorbic acid 2-sesquimagnesium phosphate hydrate (SIGMA, A8960)+200 mg/L calcium chloride dihydrate (SIGMA, C7902)+0.08% chondroitin sulfate (Wako Pure Chemical Industries, Ltd., 032-14613)+50 μg/mL gentamicin (invitrogen, 15710-064)+1 μM SB431542 (WAKO, 192-16541)+10 μM SB203580 (Cayman, 13067).
Upon reaching confluence, the culturing was further conducted for one more week with OptiMEM-I (invitrogen, 31985-088)+8% FBS (Thermo, SH30084.03)+20 μg/mL+200 mg/L calcium chloride dihydrate (SIGMA, C7902)+0.08% chondroitin sulfate (Wako Pure Chemical Industries, Ltd., 032-14613)+50 μg/mL gentamicin (invitrogen, 15710-064).
After one week, the medium was removed, and a medium with 0.1 μM, 0.3 μM, 1 μM, 3 μM, 10 μM, 30 μM and 100 μM AKP-001 included therein was added, followed by culturing for 24 hours. For the medium, used was OptiMEM-I (invitrogen, 31985-088)+8% FBS (Thermo, SH30084.03)+20 μg/mL+200 mg/L calcium chloride dihydrate (SIGMA, C7902)+0.08% chondroitin sulfate (Wako Pure Chemical Industries, Ltd., 032-14613)+50 μg/mL gentamicin (invitrogen, 15710-064).
After the observation, the caspase 3/7 activity was measured by Caspase-Glo 3/7 Assay according to the following procedure. The medium was discarded to 50 μl per well, and Caspase Glo 3/7 Assay Reagent (mixture of Caspase-Glo 3/7 Assay Buffer and Caspase-Glo 3/7 Assay Substrate) (Promega, G8091) solution was added to the 50 μl/well to reach 1:1 with the medium. The operations from this point on were conducted while light was blocked. […] After standing, 80 μl was transferred to an Assay plate (Corning, 3912, Assay plate 96 well, white polystyrene), and the […] was measured using GloMax-Multi Detection System (Promega, E7051).

O=C(Cc1c(F)cccc1Cl)Nc1onc(-c2ccc(F)cc2)c1-c1ccncn1 [AKP-001, 5-[(2-chloro-6-fluorophenyl)acetylamino]-3-(4-fluorophenyl)-4-(4-pyrimidinyl)isoxazole]
cleaved caspase-3 and PARP expression ([1]; 100 ng/ml TGF-β2, 24 hours): hardly any | caspase activity ([1]; TGF-β2): inhibited | caspase 3/7 activity compared to the control group (caspase 3/7; 0.1 μM, 0.3 μM, 1 μM and 3 μM): no significant difference | caspase 3/7 activity compared to the control group (caspase 3/7; 10 μM, 30 μM and 100 μM): significantly activated | concentrations at which no damage to the cells is caused (caspase 3/7): ≤ 10 µM
